These results are taken from US20180133211A1, “METHODS AND MATERIALS FOR PROMOTING BONE FORMATION” (Mayo Foundation for Medical Education and Research, priority 2015, published 2018).

SMILES strings stand for the structures.

One series has as its system BMSCs. Nature of the series: RT-qPCR mRNA expression. In kind it is cell-based, mouse. As to the method:
Mouse bone marrow mesenchymal stem cells were isolated from aseptically dissected long bones of 6-week old C57BL/6 mice (Himberg, Austria). The marrow cavities were flushed with sterile medium using a 25-gauge needle, and the culture was established in α-MEM supplemented with 10% FCS and […]. After 48 hours of culture at 5% CO2 and 37° C., the non-adherent cells were removed by gentle rinsing with PBS. At confluence, cells were harvested and seeded at a density of 3,000/cm^2 for cell experiments. […]
Total RNA was extracted using the SV Total RNA Isolation kit (Promega) following the supplier's instructions. cDNA was synthesized from about 0.5 μg RNA using the First Strand cDNA Synthesis kit (Roche) as described by the supplier. The resulting cDNAs were subjected to quantitative PCR amplification with a real-time cycler using the QUANTITECT™ SYBR® Green PCR Kit (Qiagen, Hilden, Germany) for the genes Alpl, Fas, Lox, Tet1, Tet2, and TAQMAN® Gene expression Master Mix (Applied Biosystems, Foster City, Calif., USA) for measuring Runx2, Bglap2, Colla1, Tnfsf11, and 18S rRNA expression (for primers, see Table 1). […] All RT-qPCR assays were performed in triplicate, and expression was evaluated using the comparative quantification method (Pfaffl, Nucleic Acids Res., 29:e45 (2001)).

Series [1] is described as follows: Body and spleen weight in GSK126 in vivo studies. Also on record: species or system mouse. The protocol:
Female C57BL/6 mice (Harlan Laboratories) were maintained on a 12-hour light/12-hour dark cycle and were permitted ad libitum access to food and water. For efficacy studies, 6-week old mice received daily intraperitoneal (IP) injections of GSK126 at 15 mg/kg, 50 mg/kg, or vehicle (DMSO) in 20% Captisol adjusted to pH 4-4.5 with IN acetic acid (McCabe et al., Nature, 492:108-112 (2012)) for 5 weeks.
The dosage, delivery schedule, and administration route were similar to those described elsewhere (McCabe et al., Nature, 492:108-112 (2012)). Animals were weighed daily. To label mineralizing bone surfaces, mice received subcutaneous injections of calcein (10 mg/kg) 5 days and 24 hours before euthanasia.
The effects of GSK126 administration on the skeleton was evaluated in an estrogen-deficient ovariectomy (OVX) model. At about 12 weeks of age, female C57BL/6 mice underwent either sham or OVX surgeries. The following day, animals received daily IP injections of GSK126 or vehicle (DMSO) at 50 mg/kg body weight for 6 weeks as described herein. To label mineralizing bone surfaces and study bone formation rates, mice received subcutaneous injections of tetracycline (25 mg/kg) 14 days prior sacrifice and calcein (10 mg/kg) at 5 days and 24 hours before euthanasia.

The subject of another series is Mesenchymal stem cells. The series can be described thus: RNA-Seq of mesenchymal stem cells treated with BMP2 and/or GSK126. The series is classed as cell-based, human. As to conditions: 2 μM GSK126 together with 50 ng/ml BMP2. The protocol: mRNASeq was performed on the following samples: 1) MSCs grown on plastic or titanium disks in osteogenic cocktail (one sample from each time-point, samples created by pooling biological triplicates), 2) RNA from d3 AMCs treated with vehicle or 2 μM GSK126 in osteogenic cocktail (three samples from each treatment group), 3) RNA from d3, d6, and d10 MC3T3 treated with vehicle or 5 μM GSK126 (one sample from each treatment group at each time-point, samples created by pooling biological triplicates), 4) RNA from three day old female WT or cKO (Prrx1-Ezh2) (one sample from each genotype, pooling of RNA from three (WT) and two (cKO)), and one sample of MSCs in adipogenic cocktail for six days. High throughput mRNA sequencing and bioinformatic analyses (mRNASeq) were performed as described elsewhere (Dudakovic et al., J. Cell Biochem., 115:1816-1828 (2014)).
In addition, osteogenic genes are synergistically activated by GSK126 and BMP2. Mesenchymal stem cells were treated with 50 ng/ml BMP2 and/or 2 μM GSK126. […] Thus, EZH2 inhibition enhances the osteogenic potential of cells treated with BMP2, a key osteogenic activator.

In the case of `C[S+]([O-])CCCCN=C=S` (racemic) [DL-SFN], the “Bglap2 mRNA expression” value in the series on BMSCs was “up regulated”. Also, in the series with BMSCs (3 μM), the “Runx2 mRNA expression” value is listed as “stimulates”.

With `CC[C@H](C)n1cc(C)c2c(C(=O)NCc3c(C)cc(C)[nH]c3=O)cc(-c3ccc(N4CCNCC4)nc3)cc21` [GSK126, N-[(1,2-dihydro-4,6-dimethyl-2-oxo-3-pyridinyl)methyl]-3-methyl-1-[(1S)-1-methylpropyl]-6-[6-(1-piperazinyl)-3-pyridinyl]-1H-indole-4-carboxamide], the “body or spleen weight at sacrifice” value in series [1] (C57bl/6 mice, 15 mg/kg or 50 mg/kg GSK126 for 5 weeks vs vehicle) was “No changes”. In series [1] (mouse ovariectomy model, six weeks of daily injections, between surgical and treatment groups), the “Body and spleen weights” value is “similar”. Also, the “expression of key osteogenic factors DLXS, SP7, IBSP” value in the series with Mesenchymal stem cells is “synergistically enhanced”.
